pIC50: −log10 of the molar value.

One test concerns mPTP-inactive Daoy cell. Briefly: Inhibitory effect on mPTP-inactive Daoy cell (PPIF shRNA; Promega CellTiter-Glo, intracellular ATP). The test is classed as cell-based, human. Conditions: Homo sapiens, Daoy, Daoy cell transfected with virus vector carrying PPIF shRNA. From the text:
The activity of mitochondria permeability transition pore (mPTP) was regulated by the PPIF protein. […] PPIF protein activity was restricted by the expression level of PPIF protein in cell.
For orientation: In ATP-based viability assays light output follows the ATP content of the culture.
On to `CC1=C2c3cc4c(cc3CCN2C(C(Cl)(Cl)Cl)c2c1ccc1c2OCO1)OCO4` (centres unmarked) [AB36442], for which the pIC50 was 4.53.
Turning to `COc1ccc2c(c1OC)C(C)N1CCc3cc4c(cc3C1=C2CCCCc1ccccc1)OCO4` (centres unmarked) [AB35468], the pIC50 was 5.98.
As to `COc1ccc2c(c1OC)C(C(Cl)(Cl)Cl)N1CCc3cc4c(cc3C1=C2CCCCc1ccccc1)OCO4` (centres unmarked) [AB35469], the pIC50 is 5.95.
In the case of `CCCC1c2c(ccc3c2OCO3)C=C2c3cc4c(cc3CCN21)OCO4` (centres unmarked) [AB36416], the pIC50 is 5.84.
Take `COc1ccc2c(c1OCCCCCCNC(=O)OC(C)(C)C)C(C)N1CCc3cc4c(cc3C1=C2)OCO4` (centres unmarked) [AB35415]: the pIC50 is 5.65.
Same read-out and setting: the same measure for `[2H]C1c2c(ccc(OC)c2OC)C=C2c3cc4c(cc3CC([2H])([2H])N21)OCO4` (centres unmarked) [AB36477]: 5.88.
Same read-out and setting: in the case of `COc1ccc2c(c1OCCCBr)C(C(Cl)(Cl)Cl)N1CCc3cc4c(cc3C1=C2)OCO4` (centres unmarked) [AB35466] it was 6.04; in that of `CCCCCC1c2c(ccc3c2OCO3)C=C2c3cc4c(cc3CCN21)OCO4` (centres unmarked) [AB36433], 6.24; in that of `COc1ccc2c(c1OCCCBr)C(C1CCCC1)N1CCc3cc4c(cc3C1=C2)OCO4` (centres unmarked) [AB35430], 5.62.
On the same count and under the same terms, the same measure for `COc1ccc2c(c1OCCCCCCBr)C(C)N1CCc3cc4c(cc3C1=C2)OCO4` (centres unmarked) [AB31897]: 5.80.
The molecule `CCCCCCOc1c(OC)ccc2c1C(C(Cl)(Cl)Cl)N1CCc3cc4c(cc3C1=C2)OCO4` (centres unmarked) [AB35487] gave a pIC50 of 6.33.
On the same count and under the same terms, in the case of `CCCCCCCCC1=C2c3cc4c(cc3CCN2C(C(Cl)(Cl)Cl)c2c1ccc(OC)c2OC)OCO4` (centres unmarked) [AB35497] it was 5.94; in that of `COc1ccc2c(c1OC/C=C(\C)CCC=C(C)C)C(C)N1CCc3cc4c(cc3C1=C2)OCO4` (centres unmarked) [AB35402], 6.09; in that of `[2H]C1([2H])c2c(ccc(OC)c2OC)C=C2c3cc4c(cc3CCN21)OCO4` [AB36434], 5.95.
Molecule `CCCCCCC1c2c(ccc3c2OCO3)C=C2c3cc4c(cc3CCN21)OCO4` (centres unmarked) [AB35426] had a pIC50 of 5.99.
For the molecule `COc1ccc2c(c1OC)C(C)N1CCc3cc4c(cc3C1=C2)OCCO4` (centres unmarked) [AB31898], the pIC50 was 5.35.
On the same count and under the same terms, the same measure for `COc1ccc2c(c1OCCCCCCNC(=O)OC(C)(C)C)C(C1CCCC1)N1CCc3cc4c(cc3C1=C2)OCO4` (centres unmarked) [AB35455]: 5.83; for `COc1ccc2c(c1OCCCc1ccccc1)C(C(Cl)(Cl)Cl)N1CCc3cc4c(cc3C1=C2)OCO4` (centres unmarked) [AB35525]: 6.15; for `C1=C2c3cc4c(cc3CCN2C(C2CCCC2)c2c1ccc1c2OCO1)OCO4` (centres unmarked) [AB36423]: 5.69.
The same measure, in the same setting: in the case of `COc1ccc2c(c1OCCN1CCCCC1)C(C)N1CCc3cc4c(cc3C1=C2)OCO4` (centres unmarked) [AB35443] it was 4.51; in that of `CCCCCCC1=C2c3cc4c(cc3CCN2C(C2CCCC2)c2c1ccc(OC)c2OC)OCO4` (centres unmarked) [AB35489], 6.10; in that of `COc1ccc2c(c1OC)C(=C(Cl)Cl)N1CCc3cc4c(cc3C1=C2)OCO4` [AB36512], 5.15.
On the same count and under the same terms, in the case of `COc1ccc2c(c1N1CCC(NC(=O)OC(C)(C)C)CC1)C(C(Cl)(Cl)Cl)N1CCc3cc4c(cc3C1=C2)OCO4` (centres unmarked) [AB35465] it was 5.57; in that of `COc1ccc2c(c1OC/C=C(\C)CCC=C(C)C)C(C1CCCC1)N1CCc3cc4c(cc3C1=C2)OCO4` (centres unmarked) [AB35438], 6.08; in that of `CCCCCC1=C2c3cc4c(cc3CCN2C(C2CCCC2)c2c1ccc(OC)c2OC)OCO4` (centres unmarked) [AB35522], 5.87.
`C1=C2c3cc4c(cc3CCN2Cc2cc3c(cc21)OCO3)OCO4` [AB36428] gave a pIC50 of 6.40.
In turn, `COc1ccc2c(c1OCc1ccccc1-c1ccccc1)C(C(Cl)(Cl)Cl)N1CCc3cc4c(cc3C1=C2)OCO4` (centres unmarked) [AB35531] showed a pIC50 of 5.81.
`COc1ccc2c(c1OCCCN1CCCCC1)C(C)N1CCc3cc4c(cc3C1=C2)OCO4` (centres unmarked) [AB35442] gave a pIC50 of 4.94. Compared with the last molecule, the pIC50 is 0.87 log units lower.

The subject of a further test is mPTP-active Daoy cell. Briefly: Inhibitory effect on mPTP-active Daoy cell (Promega CellTiter-Glo, intracellular ATP). The test is classed as cell-based, human. Conditions: Homo sapiens, Daoy, Daoy cell transfected with empty virus vector without PPIF shRNA.
In turn, `CC1=C2c3cc4c(cc3CCN2C(C(Cl)(Cl)Cl)c2c1ccc1c2OCO1)OCO4` (centres unmarked) [AB36442] had a negative-log IC50 (pIC50) of 4.52.
Same read-out and setting: in the case of `COc1ccc2c(c1OC)C(C)N1CCc3cc4c(cc3C1=C2CCCCc1ccccc1)OCO4` (centres unmarked) [AB35468] it was 5.64; in that of `COc1ccc2c(c1OC)C(C(Cl)(Cl)Cl)N1CCc3cc4c(cc3C1=C2CCCCc1ccccc1)OCO4` (centres unmarked) [AB35469], 5.62; in that of `CCCC1c2c(ccc3c2OCO3)C=C2c3cc4c(cc3CCN21)OCO4` (centres unmarked) [AB36416], 5.42.
Same read-out and setting: the same measure for `COc1ccc2c(c1OCCCCCCNC(=O)OC(C)(C)C)C(C)N1CCc3cc4c(cc3C1=C2)OCO4` (centres unmarked) [AB35415]: 5.32; for `[2H]C1c2c(ccc(OC)c2OC)C=C2c3cc4c(cc3CC([2H])([2H])N21)OCO4` (centres unmarked) [AB36477]: 5.60.
On to `COc1ccc2c(c1OCCCBr)C(C(Cl)(Cl)Cl)N1CCc3cc4c(cc3C1=C2)OCO4` (centres unmarked) [AB35466], for which the pIC50 is 5.66. The pIC50 values of the last two molecules are within 0.2 log units of each other.
With `CCCCCC1c2c(ccc3c2OCO3)C=C2c3cc4c(cc3CCN21)OCO4` (centres unmarked) [AB36433], the pIC50 is 5.72.
Take `COc1ccc2c(c1OCCCBr)C(C1CCCC1)N1CCc3cc4c(cc3C1=C2)OCO4` (centres unmarked) [AB35430]: the pIC50 was 5.29.
Take `COc1ccc2c(c1OCCCCCCBr)C(C)N1CCc3cc4c(cc3C1=C2)OCO4` (centres unmarked) [AB31897]: the pIC50 is 5.46.
In the case of `CCCCCCOc1c(OC)ccc2c1C(C(Cl)(Cl)Cl)N1CCc3cc4c(cc3C1=C2)OCO4` (centres unmarked) [AB35487], the pIC50 is 5.75.
The same measure, in the same setting: the same measure for `CCCCCCCCC1=C2c3cc4c(cc3CCN2C(C(Cl)(Cl)Cl)c2c1ccc(OC)c2OC)OCO4` (centres unmarked) [AB35497]: 5.48.
Still for that read-out and setting: the same measure for `COc1ccc2c(c1OC/C=C(\C)CCC=C(C)C)C(C)N1CCc3cc4c(cc3C1=C2)OCO4` (centres unmarked) [AB35402]: 5.76; for `[2H]C1([2H])c2c(ccc(OC)c2OC)C=C2c3cc4c(cc3CCN21)OCO4` [AB36434]: 5.62.
Regarding `CCCCCCC1c2c(ccc3c2OCO3)C=C2c3cc4c(cc3CCN21)OCO4` (centres unmarked) [AB35426], the pIC50 was 5.57.
Still for that read-out and setting: in the case of `COc1ccc2c(c1OC)C(C)N1CCc3cc4c(cc3C1=C2)OCCO4` (centres unmarked) [AB31898] it was 5.02; in that of `COc1ccc2c(c1OCCCCCCNC(=O)OC(C)(C)C)C(C1CCCC1)N1CCc3cc4c(cc3C1=C2)OCO4` (centres unmarked) [AB35455], 5.45.
As to `COc1ccc2c(c1OCCCc1ccccc1)C(C(Cl)(Cl)Cl)N1CCc3cc4c(cc3C1=C2)OCO4` (centres unmarked) [AB35525], the pIC50 is 5.61. This pIC50 and that of the molecule before are within 0.2 log units of each other.
Still for that read-out and setting: the same measure for `C1=C2c3cc4c(cc3CCN2C(C2CCCC2)c2c1ccc1c2OCO1)OCO4` (centres unmarked) [AB36423]: 5.17; for `COc1ccc2c(c1OCCN1CCCCC1)C(C)N1CCc3cc4c(cc3C1=C2)OCO4` (centres unmarked) [AB35443]: 4.52; for `CCCCCCC1=C2c3cc4c(cc3CCN2C(C2CCCC2)c2c1ccc(OC)c2OC)OCO4` (centres unmarked) [AB35489]: 5.77.
The same measure, in the same setting: the same measure for `COc1ccc2c(c1OC)C(=C(Cl)Cl)N1CCc3cc4c(cc3C1=C2)OCO4` [AB36512]: 5.19; for `COc1ccc2c(c1N1CCC(NC(=O)OC(C)(C)C)CC1)C(C(Cl)(Cl)Cl)N1CCc3cc4c(cc3C1=C2)OCO4` (centres unmarked) [AB35465]: 5.27; for `COc1ccc2c(c1OC/C=C(\C)CCC=C(C)C)C(C1CCCC1)N1CCc3cc4c(cc3C1=C2)OCO4` (centres unmarked) [AB35438]: 5.73.
On to `CCCCCC1=C2c3cc4c(cc3CCN2C(C2CCCC2)c2c1ccc(OC)c2OC)OCO4` (centres unmarked) [AB35522], for which the negative-log IC50 (pIC50) was 5.40.
As to `C1=C2c3cc4c(cc3CCN2Cc2cc3c(cc21)OCO3)OCO4` [AB36428], the pIC50 was 6.04.
The same measure, in the same setting: the same measure for `COc1ccc2c(c1OCc1ccccc1-c1ccccc1)C(C(Cl)(Cl)Cl)N1CCc3cc4c(cc3C1=C2)OCO4` (centres unmarked) [AB35531]: 5.44.
The same measure, in the same setting: in the case of `COc1ccc2c(c1OCCCN1CCCCC1)C(C)N1CCc3cc4c(cc3C1=C2)OCO4` (centres unmarked) [AB35442] it was 4.97.

Usually pIC50 stands for the negative decadic logarithm of the IC50, by convention in mol/L. Read a low pIC50 as a large IC50.
